From PMC5802807, “Heme interaction of the intrinsically disordered N-terminal peptide segment of human cystathionine-β-synthase” (Scientific Reports, 2018)

Target: T1, GB1CBS(1–40) (Homo sapiens, UniProt P35520)
T1 construct: gene CBS; His6 tag cut with thrombin; E. coli BL21(DE3); full-length CBS 551 residues
T1 sequence (P35520 1-40): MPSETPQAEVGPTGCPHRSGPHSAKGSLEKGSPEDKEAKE
Assay: UV/Vis titration, Soret band at […] nm
Type: binding

Kd: 2.18 ± 0.64 µM
Structure (SMILES): C=CC1=C(C)C2=Cc3c(C=C)c(C)c4[n]3[Fe]([Cl])[n]3c(c(C)c(CCC(=O)O)c3=CC3=NC(=C4)C(C)=C3CCC(=O)O)=CC1=N2 [hemin]
